Laboratory results reported in US4226610A, “Herbicidal compounds, preparation thereof and herbicides containing the same” (Meiji Selka Kaisha, Ltd., priority 1978, dated 1980).
Structures can show the parent of a compound that is named as a salt.

How the values were obtained:
manna grass = assay: Experiment 1 foliar application to naturally growing weeds; assay type: in vivo, Digitaria adsceudes Henr.; details: 2 months
Text: (§1) The detail of the assessment made in the following Experiments of the invention was as follows:
(§2) Four months after treatment, evaluation was made for inhibition of reproduction expressed in terms of symbols ranging from (-) to (+++) where (-) means no reproduction, namely complete suppression of reproduction, (±) remarkable suppression of reproduction; (+) considerable suppression of reproduction; (++) medium supprestion of reproduction; and (+++) no suppression of reproduction.
(§3) The compounds of the invention and other compounds for comparison listed in Table 3 were diluted to prescribed concentrations and sprayed to naturally growing weeds by foliar application in an amount of 150 liter per 10 are.
(§4) 0.1% of octylphenyl polyoxyethanol was added as a surfactant.
(§5) The killing index (0, no effect, 5, death) after 21 days, and the reproduction-inhibiting effect (-, no reproduction; +++, maximum reproduction) after 2 months (manna grass and cockspar grass) and 4 months (other weeds) were determined.

cockspar grass = assay: as above; assay type: in vivo, Echinochloa Crusgalli P. Beauv.; details: 2 months
Text: as §1, §2, §3, §4, §5

yabugarashi = assay: as above; assay type: in vivo, Cayratia japonica Houtt.; details: 4 months
Text: as §1, §2, §3, §4, §5

purple nutsedge = assay: as above; assay type: in vivo, Cyperus rotundus L.; details: 4 months
Text: as §1, §2, §3, §4, §5

warunasubi = assay: as above; assay type: in vivo, Solanum carolinensis L.; details: 4 months
Text: as §1, §2, §3, §4, §5

hedge bindweed = assay: as above; assay type: in vivo, Calystegis hederacea Wall.; details: 4 months
Text: as §1, §2, §3, §4, §5

white clover = assay: as above; assay type: in vivo, Trifolium repens L.; details: for Reproduction-inhibiting effect: 4 months; for Killing index of Upperground parts: 21 days
Text: as §1, §2, §3, §4, §5

azumanezasa = assay: as above; assay type: in vivo, Pleioblastus Chino Makino; details: 4 months
Text: as §1, §2, §3, §4, §5

chigaya = assay: as above; assay type: in vivo, Imperata cylindrica Beauv.; details: for Reproduction-inhibiting effect: 4 months
Text: as §1, §2, §3, §4, §5

eulalia = assay: Experiment 2 foliar application in Japanese cypress afforested land; assay type: in vivo, Miscanthus sinensis Andress.; parameters: key: 0 = no effect, 5 = death; details: 0.125%; after 3 months
Procedure: as §1
(§6) The compounds of the invention and other compounds listed in Table 4. were diluted to prescribed concentrations and sprayed to shrubs by foliar application in a Japanese cypress afforested land in an amount of 150 liter per 10 are.
(§7) After 30 days and 3 months, the killing index (0, no effect; 5, death) was determined.
(§8) The heights of plants were 50-70 cm. for Japanese cypress, about 50 cm. for chestnut, 50-90 cm. for miyakozasa, about 100 cm. for eulalia and 70-100 cm. for kumaichigo, respectively.

kumaichigo = assay: as above; assay type: in vivo, Rubus crataegifolius Bunge
Procedure: as §1, §6, §7, §8

Japanese bush cranberry = assay: Experiment 3 foliar application to naturally growing shrubs; assay type: in vivo, Viburnum dilatatum Thunb.; details: after 3 months
Text: as §1, §2
(§9) The compounds of the invention and other compounds listed in Table 5. were diluted to prescribed concentrations and sprayed onto naturally growing shrubs by foliar application in an amount of 150 liter per 10 are.
(§10) 0.1% of octylphenyl polyoxyethanol was added as the surfactant. The killing index (0, no effect; 5, death) after 1 month and 3 months, and the reproduction-inhibiting effect (-, no reproduction; +++, maximum reproduction) after 3 months were determined.

kiichigo = assay: as above; assay type: in vivo, Rubus palmatsu Thunb. forma coptophyllus Makino; details: after 3 months
Text: as §1, §2, §9, §10

Japanese prickly ash = assay: as above; assay type: in vivo, Xanthoxylum piperitum DC.; details: after 3 months
Text: as §1, §2, §9, §10

lace shrub = assay: as above; assay type: in vivo, Stephanandra incisa Zabel; details: after 3 months
Text: as §1, §2, §9, §10

yamazakura = assay: as above; assay type: in vivo, Prunus donarium Sieb. var. spontanae Makino; details: after 3 months
Text: as §1, §2, §9, §10

torch azalea = assay: as above; assay type: in vivo, Rhododendoron Kaempferi Planch.; details: after 3 months
Text: as §1, §2, §9, §10

oak = assay: as above; assay type: in vivo, Quercus serrata Thunb; details: after 3 months
Text: as §1, §2, §9, §10

water hyacinth = assay: Experiment 5 foliar application to water hyacinths; assay type: in vivo, Eichhornia crassipes Solms; parameters: key to Killing index: 0 = no effect, 5 = death; details: for Reproduction-inhibiting effect: 3 months
Text: as §1, §2
Water was placed in 20 cm.×30 cm. plastic vessels and a liquid fertilizer was added thereto. Two water hyacinths were floated in each vessel.
0.1 or 0.2% aqueous solutions of each of the compounds of the invention listed in Table 7 were sprayed by foliar application in an amount of 100 liter per 10 are. As a surfactant, 0.1% of octylphenyl polyoxyethanol was added.
The killing index (0, no effect; 5, death) after 21 days and 3 months, and the reproduction-inhibiting effect (-, no reproduction; +++, maximum reproduction) after 3 months were determined.

Structure (SMILES): CP(=O)(O)CCC(N)C(=O)O (racemic) [DL-2-Amino-4-methylphosphinobutanoic acid monodiethanolammon] [DL-2-Amino-4-methylphosphinobutanoic acid monodiethanolammonium salt]
- Reproduction-inhibiting effect (manna grass; 0.05%): +++
- Reproduction-inhibiting effect (manna grass; 0.1%): ++
- Reproduction-inhibiting effect (manna grass; 0.2%): -
- Reproduction-inhibiting effect (cockspar grass; 0.05%): +++
- Reproduction-inhibiting effect (cockspar grass; 0.1%): ++
- Reproduction-inhibiting effect (cockspar grass; 0.2%): -
- Reproduction-inhibiting effect (yabugarashi; 0.05%): +++
- Reproduction-inhibiting effect (yabugarashi; 0.1%): +++
- Reproduction-inhibiting effect (yabugarashi; 0.2%): ++
- Reproduction-inhibiting effect (purple nutsedge; 0.05%): +++
- Reproduction-inhibiting effect (purple nutsedge; 0.1%): +++
- Reproduction-inhibiting effect (purple nutsedge; 0.2%): +
- Reproduction-inhibiting effect (warunasubi; 0.05%): +++
- Reproduction-inhibiting effect (warunasubi; 0.1%): +++
- Reproduction-inhibiting effect (warunasubi; 0.2%): +
- Reproduction-inhibiting effect (hedge bindweed; 0.05%): +++
- Reproduction-inhibiting effect (hedge bindweed; 0.1%): +++
- Reproduction-inhibiting effect (hedge bindweed; 0.2%): +++
- Reproduction-inhibiting effect (white clover; 0.05%): +++
- Reproduction-inhibiting effect (white clover; 0.1%): +++
- Reproduction-inhibiting effect (white clover; 0.2%): -
- Reproduction-inhibiting effect (azumanezasa; 0.05%): +++
- Reproduction-inhibiting effect (azumanezasa; 0.1%): +
- Reproduction-inhibiting effect (azumanezasa; 0.2%): -
- Reproduction-inhibiting effect (chigaya; 0.05%): +++
- Killing index of Upperground parts (chigaya; 0.05%, 21 days): 2.5
- Reproduction-inhibiting effect (chigaya; 0.1%): ++
- Reproduction-inhibiting effect (chigaya; 0.2%): -
- Killing index (eulalia): 1.5
- Killing index (kumaichigo; 0.125%, after 3 months): 1.5
- Reproduction-inhibiting (Japanese bush cranberry; 0.05%): +++
- Reproduction-inhibiting (Japanese bush cranberry; 0.1%): ++
- Reproduction-inhibiting (Japanese bush cranberry; 0.2%): ++
- Reproduction-inhibiting (kiichigo; 0.05%): +++
- Reproduction-inhibiting (kiichigo; 0.1%): ++
- Reproduction-inhibiting (kiichigo; 0.2%): -
- Reproduction-inhibiting (Japanese prickly ash; 0.05%): +++
- Reproduction-inhibiting (Japanese prickly ash; 0.1%): ++
- Reproduction-inhibiting (Japanese prickly ash; 0.2%): -
- Reproduction-inhibiting (lace shrub; 0.05%): +++
- Reproduction-inhibiting (lace shrub; 0.1%): ++
- Reproduction-inhibiting (lace shrub; 0.2%): -
- Reproduction-inhibiting (yamazakura; 0.05%): +++
- Reproduction-inhibiting (yamazakura; 0.1%): ++
- Reproduction-inhibiting (yamazakura; 0.2%): -
- Reproduction-inhibiting (torch azalea; 0.05%): +++
- Reproduction-inhibiting (torch azalea; 0.1%): ++
- Reproduction-inhibiting (torch azalea; 0.2%): -
- Reproduction-inhibiting (oak; 0.05%): +++
- Reproduction-inhibiting (oak; 0.1%): ++
- Reproduction-inhibiting (oak; 0.2%): -

Structure (SMILES): C[C@H](NC(=O)[C@H](C)NC(=O)[C@@H](N)CCP(C)(=O)O)C(=O)O [monosodium salt]
- Reproduction-inhibiting effect (manna grass; 0.05%, monosodium salt): +++
- Reproduction-inhibiting effect (manna grass; 0.1%, monosodium salt): ++
- Reproduction-inhibiting effect (manna grass; 0.2%, monosodium salt): ±
- Reproduction-inhibiting effect (cockspar grass; 0.05%, monosodium salt): +++
- Reproduction-inhibiting effect (cockspar grass; 0.1%, monosodium salt): ++
- Reproduction-inhibiting effect (cockspar grass; 0.2%, monosodium salt): ±
- Reproduction-inhibiting effect (yabugarashi; 0.05%, monosodium salt): +++
- Reproduction-inhibiting effect (yabugarashi; 0.1%, monosodium salt): ++
- Reproduction-inhibiting effect (yabugarashi; 0.2%, monosodium salt): ±
- Reproduction-inhibiting effect (purple nutsedge; 0.05%, monosodium salt): +++
- Reproduction-inhibiting effect (purple nutsedge; 0.1%, monosodium salt): +++
- Reproduction-inhibiting effect (purple nutsedge; 0.2%, monosodium salt): +
- Reproduction-inhibiting effect (warunasubi; 0.05%, monosodium salt): +++
- Reproduction-inhibiting effect (warunasubi; 0.1%, monosodium salt): +++
- Reproduction-inhibiting effect (warunasubi; 0.2%, monosodium salt): +
- Reproduction-inhibiting effect (hedge bindweed; 0.05%, monosodium salt): +++
- Reproduction-inhibiting effect (hedge bindweed; 0.1%, monosodium salt): +++
- Reproduction-inhibiting effect (hedge bindweed; 0.2%, monosodium salt): +++
- Reproduction-inhibiting effect (white clover; 0.05%, monosodium salt): +++
- Killing index of Upperground parts (white clover; 0.05%, monosodium salt): 1.5
- Reproduction-inhibiting effect (white clover; 0.1%, monosodium salt): +++
- Killing index of Upperground parts (white clover; 0.1%, monosodium salt): 3.5
- Reproduction-inhibiting effect (white clover; 0.2%, monosodium salt): +
- Reproduction-inhibiting effect (azumanezasa; 0.05%, monosodium salt): +++
- Reproduction-inhibiting effect (azumanezasa; 0.1%, monosodium salt): +
- Reproduction-inhibiting effect (azumanezasa; 0.2%): -
- Reproduction-inhibiting effect (chigaya; 0.1%, monosodium salt): ++
- Reproduction-inhibiting effect (chigaya; 0.2%): -
- Killing index (kumaichigo; 0.25%, after 30 days, monosodium salt): 4.5
- Reproduction-inhibiting (Japanese bush cranberry; 0.05%, monosodium salt): +++
- Reproduction-inhibiting (Japanese bush cranberry; 0.1%, monosodium salt): +
- Reproduction-inhibiting (Japanese bush cranberry; 0.2%): -
- Reproduction-inhibiting (kiichigo; 0.05%, monosodium salt): +++
- Reproduction-inhibiting (kiichigo; 0.1%, monosodium salt): +
- Reproduction-inhibiting (kiichigo; 0.2%): -
- Reproduction-inhibiting (Japanese prickly ash; 0.05%, monosodium salt): +++
- Reproduction-inhibiting (Japanese prickly ash; 0.1%, monosodium salt): +
- Reproduction-inhibiting (Japanese prickly ash; 0.2%): -
- Reproduction-inhibiting (lace shrub; 0.05%, monosodium salt): +++
- Reproduction-inhibiting (lace shrub; 0.1%, monosodium salt): ++
- Reproduction-inhibiting (lace shrub; 0.2%): -
- Reproduction-inhibiting (yamazakura; 0.05%, monosodium salt): +++
- Reproduction-inhibiting (yamazakura; 0.1%, monosodium salt): ++
- Reproduction-inhibiting (yamazakura; 0.2%): -
- Reproduction-inhibiting (torch azalea; 0.05%, monosodium salt): +++
- Reproduction-inhibiting (torch azalea; 0.1%, monosodium salt): ++
- Reproduction-inhibiting (torch azalea; 0.2%): -
- Reproduction-inhibiting (oak; 0.05%, monosodium salt): +++
- Reproduction-inhibiting (oak; 0.1%, monosodium salt): ++
- Reproduction-inhibiting (oak; 0.2%): -
- Reproduction-inhibiting effect (water hyacinth; 0.1%, listed as SF-1293 monosodium salt, monosodium salt): +
- Reproduction-inhibiting effect (water hyacinth; 0.2%): -
- Killing index (water hyacinth; 0.2%, 21 days, listed as SF-1293 monosodium salt, monosodium salt): 4.5
